Tests used:
Assay in all cases: MIC, standard broth dilution method in microtitre
Type in all cases: cell-based
[1] = test system: erythromycin resistant strains of Streptococcus pyogenes
Description: (§1) Using a standard broth dilution method in microtitre, compounds were tested for antibacterial activity. The compounds in the above examples gave minimum inhibitory concentrations (MICs) less than 1 microgram per millilitre against erythromycin-sensitive and erythromycin-resistant strains of Streptococcus pneumoniae and Streptococcus pyogenes.

[2] = test system: erythromycin resistant strains of Streptococcus pneumoniae
Description: as §1

[3] = test system: H. influenzae ATCC 49247; settings: Haemophilus influenzae, ATCC49247; H. influenzae ATCC 49247; broth dilution in microtitre; read-out: MIC
Description: as §1
(§2) In addition, the MIC (μg/mL) of test compounds against various organisms was determined including:
(§3) S. aureus Smith ATCC 13709, S. pneumoniae SP030, S. pyogenes 3565, E. faecalis ATCC 29212, H. influenzae ATCC 49247, M. catarrhalis ATCC 23246.

[4] = test system: S. pyogenes 3565; settings: Streptococcus pyogenes
Description: as §1, §2, §3

[5] = test system: S. pneumoniae SP030; settings: Streptococcus pneumoniae
Description: as §1, §2, §3

[6] = test system: S. aureus Smith ATCC 13709; settings: Staphylococcus aureus, ATCC13709
Description: as §1, §2, §3

[7] = test system: E. faecalis ATCC 29212; settings: Enterococcus faecalis, ATCC29212
Description: as §1, §2, §3

[8] = test system: M. catarrhalis ATCC 23246; settings: Moraxella catarrhalis, ATCC23246
Description: as §1, §2, §3

MIC [1]: ≤ 0.25 mg/L
MIC [2]: ≤ 0.25 mg/L
MIC [3]: ≤ 2 mg/L
MIC [4]: ≤ 1 mg/L
MIC [5]: ≤ 1 mg/L
MIC [6]: ≤ 1 mg/L
MIC [7]: ≤ 1 mg/L
MIC [8]: ≤ 2 mg/L
Compound: CC[C@H]1OC(=O)[C@H](C)[C@@H](O[C@H]2C[C@@](C)(OC)[C@@H](OC(=O)CCOCCOc3ccc4c(c3)c(=O)c(C(=O)O)cn4C3CC3)[C@H](C)O2)[C@H](C)[C@@H](O[C@@H]2O[C@H](C)C[C@H](N(C)C)[C@@H]2O)[C@](C)(O)C[C@@H](C)CN(C)[C@H](C)[C@@H](O)[C@]1(C)O [Example 29, 4″-O-{3-[2-(3-Carboxy-1-cyclopropyl-4-oxo-1,4-dihydro-quinolin-6-yloxy)-ethoxy]-propionyl}-azithromycin]
